Two compounds from PMC2767256 (Biochemical pharmacology, 2009) can be followed below.

Molecules are shown by their SMILES. pIC50: −log10 of the molar value.

Holding throughout (type): biochemical
The target of one assay is T1, SULT2A1 (Homo sapiens, UniProt Q06520).
T1 sequence (Q06520 1-285): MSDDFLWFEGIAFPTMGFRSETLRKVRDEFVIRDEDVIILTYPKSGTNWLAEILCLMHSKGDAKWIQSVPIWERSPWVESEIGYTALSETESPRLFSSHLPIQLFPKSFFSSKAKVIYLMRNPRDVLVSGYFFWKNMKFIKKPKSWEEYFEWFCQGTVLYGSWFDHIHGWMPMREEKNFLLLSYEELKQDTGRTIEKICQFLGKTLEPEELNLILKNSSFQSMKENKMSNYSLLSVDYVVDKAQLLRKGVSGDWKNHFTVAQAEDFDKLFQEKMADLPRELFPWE
The assay can be described thus: sulfation of [3H]DHEA.

The next assay concerns the target SULT1A1 (Homo sapiens, UniProt P50225). The assay can be described thus: inhibition of 4-nitrophenol sulfation with […]PAPS in BeWo cytosol.
The next assay deals with SULT1A3 (Homo sapiens, UniProt P0DMM9). The assay can be described thus: inhibition of dopamine sulfation with […]PAPS in BeWo cytosol.
SULT1A3, sequence (P0DMM9 whole entry): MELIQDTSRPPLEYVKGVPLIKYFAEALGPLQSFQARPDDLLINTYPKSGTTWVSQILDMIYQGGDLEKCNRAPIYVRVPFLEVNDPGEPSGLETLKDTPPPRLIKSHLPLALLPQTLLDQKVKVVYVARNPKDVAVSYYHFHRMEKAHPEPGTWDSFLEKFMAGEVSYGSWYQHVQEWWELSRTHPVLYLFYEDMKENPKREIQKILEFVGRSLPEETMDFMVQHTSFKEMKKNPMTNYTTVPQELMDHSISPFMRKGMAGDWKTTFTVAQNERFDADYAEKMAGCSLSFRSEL

SULT1A1, sequence (P50225 whole entry): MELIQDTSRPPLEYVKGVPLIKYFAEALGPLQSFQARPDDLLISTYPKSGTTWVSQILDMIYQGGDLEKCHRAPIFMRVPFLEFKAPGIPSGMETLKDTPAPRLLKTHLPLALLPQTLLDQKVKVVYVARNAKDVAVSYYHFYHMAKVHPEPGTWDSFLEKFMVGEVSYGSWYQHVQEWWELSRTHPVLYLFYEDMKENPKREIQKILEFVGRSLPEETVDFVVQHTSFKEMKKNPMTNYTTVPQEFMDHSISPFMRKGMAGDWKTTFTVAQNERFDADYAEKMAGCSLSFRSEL

As for `C[C@]12CC[C@H](O)CC1=CC[C@@H]1[C@@H]2CC[C@]2(C)C(=O)CC[C@@H]12` [DHEA, dehydroepiandrosterone], the “sulfation of [3H]DHEA (3 and 10 μM) by purified SULT2A1” value at SULT2A1 was “Under the same assay conditions, purified SULT2A1 readily sulfated DHEA”. The pIC50 is −log10 of the IC50, conventionally taken in molar units. Read a high pIC50 as a small IC50. Turning to `O=[N+]([O-])c1cc(Cl)c(O)c(Cl)c1` [DCNP, 2,6-dichloro-4-nitrophenol], the pIC50 is 7.28 against SULT1A1 and 3.08 against SULT1A3.
